18 compounds from US12486253B2, “Therapeutics for the degradation of mutant BRAF” (C4 THERAPEUTICS, INC., priority 2021, dated 2025) can be followed below.

Read-outs that look alike come from different tables or passages of the source.

The target of the experiment is BRAF V600E (Homo sapiens, UniProt P15056, V600E). Briefly: HiBiT cellular BRAF^V600E degradation assay. The note with it: for DC50: concentration at which 50% of total cellular BRAF^V600E is degraded; for Emax: read-out: HiBit 24 h Emax. In kind it is cell-based. (In general: The HiBiT peptide binds its large partner to form an active luciferase.)
[1] abbreviates: A375.10 cells, 24 h, residual protein remaining in the cell.

BRAF V600E, sequence (P15056 whole entry V600E): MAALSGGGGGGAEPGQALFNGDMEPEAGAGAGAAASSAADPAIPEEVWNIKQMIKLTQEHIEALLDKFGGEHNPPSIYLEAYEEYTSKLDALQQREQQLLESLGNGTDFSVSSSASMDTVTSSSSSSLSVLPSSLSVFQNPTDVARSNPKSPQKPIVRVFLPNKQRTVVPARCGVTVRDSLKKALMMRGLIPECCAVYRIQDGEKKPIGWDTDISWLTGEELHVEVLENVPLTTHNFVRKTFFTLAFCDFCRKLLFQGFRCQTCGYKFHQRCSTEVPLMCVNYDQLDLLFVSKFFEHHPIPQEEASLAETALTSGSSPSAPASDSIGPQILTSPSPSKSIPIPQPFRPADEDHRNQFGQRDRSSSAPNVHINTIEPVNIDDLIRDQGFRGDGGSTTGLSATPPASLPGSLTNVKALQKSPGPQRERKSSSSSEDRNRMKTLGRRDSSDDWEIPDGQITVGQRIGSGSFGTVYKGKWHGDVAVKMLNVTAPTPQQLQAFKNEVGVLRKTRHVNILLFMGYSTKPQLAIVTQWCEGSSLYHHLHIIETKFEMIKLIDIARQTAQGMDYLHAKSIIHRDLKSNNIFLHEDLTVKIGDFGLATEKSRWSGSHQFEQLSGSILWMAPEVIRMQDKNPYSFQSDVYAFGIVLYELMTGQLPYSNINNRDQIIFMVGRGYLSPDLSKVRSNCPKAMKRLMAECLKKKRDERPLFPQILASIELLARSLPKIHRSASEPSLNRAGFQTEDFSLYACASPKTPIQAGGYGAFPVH

A word on the DC50: it is the concentration at which degradation of the target reaches its halfway point. A higher DC50 goes with a less potent degrader. As a reminder, the Emax is the size of the effect at its maximum, as opposed to the concentration needed. Compound `CCN(C)S(=O)(=O)Nc1ccc(F)c(Oc2ccc3ncn(-c4cnc(N5CCN(C(=O)CN6CCC(c7ccc(N[C@@H]8CCC(=O)NC8=O)cc7F)CC6)CC5)nc4)c(=O)c3c2COC)c1C#N` [Example 135, 6-[2-cyano-3-[[ethyl(methyl)sulfamoyl]amino]-6-fluorophenoxy]-3-[2-[4-[2-[4-[4-[[(3R)-2,6-dioxopiperidin-3-yl]amino]-2-fluorophenyl]piperidin-1-yl]acetyl]piperazin-1-yl]pyrimidin-5-yl]-5-(methoxymethyl)-4-oxoquinazoline] came in with a DC50 (A375.10 cells, 24 h) of 0.0314 µM. Further, the Emax under setting [1] was 13.7%.
The compound `CCN(C)S(=O)(=O)Nc1ccc(F)c(Oc2ccc3ncn(CC4COC5(CCN(C(=O)CN6CCC(c7ccc(NC8CCC(=O)NC8=O)cc7F)CC6)CC5)C4)c(=O)c3c2)c1C#N` (stereo not drawn) [Example 36, 3-[[6-[2-cyano-3-[[ethyl(methyl)sulfamoyl]amino]-6-fluorophenoxy]-4-oxoquinazolin-3-yl]methyl]-8-[2-[4-[4-[(2,6-dioxopiperidin-3-yl)amino]-2-fluorophenyl]piperidin-1-yl]acetyl]-1-oxa-8-azaspiro[4.5]decane] displayed a DC50 (A375.10 cells, 24 h) of 0.0513 µM. Further, under setting [1], the Emax amounted to 10.3%.
The corresponding values for `CCN(C)S(=O)(=O)Nc1ccc(F)c(Nc2ccc3ncn([C@H]4COC5(CCN(C(=O)CN6CCC(c7ccc(NC8CCC(=O)NC8=O)cc7F)CC6)CC5)C4)c(=O)c3c2)c1C#N` (single isomer, unassigned) [Example 82] are 0.0207 µM and 6.45%.
The compound `CCN(C)S(=O)(=O)Nc1ccc(F)c(Oc2ccc3ncn(CCN4CCN(C(=O)CN5CCC(c6ccc(NC7CCC(=O)NC7=O)cc6)CC5)CC4)c(=O)c3c2)c1C#N` (stereo not drawn) [Example 9, 6-[2-cyano-3-[[ethyl(methyl)sulfamoyl]amino]-6-fluorophenoxy]-3-[2-[4-[2-[4-[4-[(2,6-dioxopiperidin-3-yl)amino]phenyl]piperidin-1-yl]acetyl]piperazin-1-yl]ethyl]-4-oxoquinazoline] returned a DC50 (A375.10 cells, 24 h) of 0.0419 µM. Also, the Emax under setting [1] was 9.87%.
The matching figures for `CCN(C)S(=O)(=O)Nc1ccc(F)c(Oc2ccc3ncn(CCC4CCN(C(=O)CN5CCC(c6ccc(C7CCC(=O)NC7=O)cc6F)CC5)CC4)c(=O)c3c2)c1C#N` (stereo not drawn) [Example 2, 6-[2-cyano-3-[[ethyl(methyl)sulfamoyl]amino]-6-fluorophenoxy]-3-[2-[1-[2-[4-[4-(2,6-dioxopiperidin-3-yl)-2-fluorophenyl]piperidin-1-yl]acetyl]piperidin-4-yl]ethyl]-4-oxoquinazoline]: 0.0486 µM and 13.5%.
On to `CCN(C)S(=O)(=O)Nc1ccc(F)c(Oc2ccc3ncn([C@H]4CCC5(CCN(C(=O)CN6CCC(c7cc(F)c(NC8CCC(=O)NC8=O)cc7F)CC6)CC5)C4)c(=O)c3c2)c1C#N` (stereo partly drawn) [Example 67, 6-[2-cyano-3-[[ethyl(methyl)sulfamoyl]amino]-6-fluorophenoxy]-3-[(3S)-8-[2-[4-[4-[(2,6-dioxopiperidin-3-yl)amino]-2,5-difluorophenyl]piperidin-1-yl]acetyl]-8-azaspiro[4.5]decan-3-yl]-4-oxoquinazoline], for which the Emax stood at 8.05%. Moreover, for the setting “A375.10 cells, 24 h”, the DC50 worked out at 0.00531 µM.
`N#Cc1c(NS(=O)(=O)C2CCCC2)ccc(F)c1Oc1ccc2ncn(-c3cnc(N4CCN(C(=O)CN5CCC(c6ccc(N[C@H]7CCC(=O)NC7=O)cc6F)CC5)CC4)nc3)c(=O)c2c1` [Example 109, N-[2-cyano-3-[3-[2-[4-[2-[4-[4-[[(3S)-2,6-dioxopiperidin-3-yl]amino]-2-fluorophenyl]piperidin-1-yl]acetyl]piperazin-1-yl]pyrimidin-5-yl]-4-oxoquinazolin-6-yl]oxy-4-fluorophenyl]cyclopentanesulfonamide] had a 50% degradation concentration (DC50) (A375.10 cells, 24 h) of 0.0125 µM. The maximal response (Emax) under setting [1] worked out at 9.04%.
The corresponding values for `CCN(C)S(=O)(=O)Nc1ccc(F)c(Oc2ccc3ncn(-c4cnn(C5CCN(C(=O)CN6CCC(c7ccc(NC8CCC(=O)NC8=O)cc7)CC6)CC5)c4)c(=O)c3c2)c1C#N` (stereo not drawn) [Example 18, 6-[2-cyano-3-[[ethyl(methyl)sulfamoyl]amino]-6-fluorophenoxy]-3-[1-[1-[2-[4-[4-[(2,6-dioxopiperidin-3-yl)amino]phenyl]piperidin-1-yl]acetyl]piperidin-4-yl]pyrazol-4-yl]-4-oxoquinazoline] are 0.0307 µM and 18.5%.
The matching figures for `CCN(C)S(=O)(=O)Nc1ccc(F)c(Oc2ccc3ncc(OC[C@@H]4[C@H]5CN(C(=O)CN6CCC(c7ccc(NC8CCC(=O)NC8=O)cc7F)CC6)C[C@@H]45)nc3c2)c1C#N` (stereo partly drawn) [Example 217, 7-[2-cyano-3-[[ethyl(methyl)sulfamoyl]amino]-6-fluorophenoxy]-2-[[(1R,5S)-3-[2-[4-[4-[(2,6-dioxopiperidin-3-yl)amino]-2-fluorophenyl]piperidin-1-yl]acetyl]-3-azabicyclo[3.1.0]hexan-6-yl]methoxy]quinoxaline]: 0.018 µM and 8.83%.
For `CCN(C)S(=O)(=O)Nc1ccc(F)c(Oc2ccc3ncn([C@@H]4CCC5(CCN(C(=O)CN6CCC(c7ccc(NC8CCC(=O)NC8=O)cc7F)CC6)CC5)C4)c(=O)c3c2Cl)c1C#N` (single isomer, unassigned) [Example 80], for the setting “A375.10 cells, 24 h”, the 50% degradation concentration (DC50) came out at 0.0305 µM. The Emax under setting [1] stood at 13.8%.
The corresponding values for `Cn1nc(N2CCC(=O)NC2=O)c2cc(F)c(N3CCC(O)(CC(=O)N4CCC5(CC4)C[C@@H](n4cnc6ccc(Oc7c(F)ccc(NS(=O)(=O)N8CCCC8)c7C#N)cc6c4=O)CO5)CC3)cc21` [Example 195, N-[2-cyano-3-[3-[(3R)-8-[2-[1-[3-(2,4-dioxo-1,3-diazinan-1-yl)-5-fluoro-1-methylindazol-6-yl]-4-hydroxypiperidin-4-yl]acetyl]-1-oxa-8-azaspiro[4.5]decan-3-yl]-4-oxoquinazolin-6-yl]oxy-4-fluorophenyl]pyrrolidine-1-sulfonamide] are 0.016 µM and 26.3%.
The corresponding values for `CCN(C)S(=O)(=O)Nc1ccc(F)c(Oc2ccc3ncn([C@H]4COC5(CCN(C(=O)CC6CCN(c7ccc8c(C9CCC(=O)NC9=O)nn(C)c8c7)CC6)CC5)C4)c(=O)c3c2)c1C#N` (stereo partly drawn) [Example 151, (3R)-3-[6-[2-cyano-3-[[ethyl(methyl)sulfamoyl]amino]-6-fluorophenoxy]-4-oxoquinazolin-3-yl]-8-[2-[1-[3-(2,6-dioxopiperidin-3-yl)-1-methylindazol-6-yl]piperidin-4-yl]acetyl]-1-oxa-8-azaspiro[4.5]decane] are 0.0187 µM and 24.6%.
The matching figures for `Cn1nc(N2CCC(=O)NC2=O)c2cc(F)c(N3CCC(O)(CC(=O)N4CCC5(CC4)C[C@@H](n4cnc6ccc(Oc7c(F)ccc(NS(=O)(=O)C8CC8)c7C#N)cc6c4=O)CO5)CC3)cc21` [Example 192, N-[2-cyano-3-[3-[(3R)-8-[2-[1-[3-(2,4-dioxo-1,3-diazinan-1-yl)-5-fluoro-1-methylindazol-6-yl]-4-hydroxypiperidin-4-yl]acetyl]-1-oxa-8-azaspiro[4.5]decan-3-yl]-4-oxoquinazolin-6-yl]oxy-4-fluorophenyl]cyclopropanesulfonamide]: 0.0317 µM and 32.2%.
As for `CCN(C)S(=O)(=O)Nc1ccc(F)c(C(=O)c2ccc3ncn(-c4cnc(N5CCN(C(=O)CN6CCC(c7ccc(N[C@@H]8CCC(=O)NC8=O)cc7F)CC6)CC5)nc4)c(=O)c3c2)c1F` [Example 141, 3-[2-[4-[2-[4-[4-[[(3R)-2,6-dioxopiperidin-3-yl]amino]-2-fluorophenyl]piperidin-1-yl]acetyl]piperazin-1-yl]pyrimidin-5-yl]-6-[3-[[ethyl(methyl)sulfamoyl]amino]-2,6-difluorobenzoyl]-4-oxoquinazoline], the DC50 (A375.10 cells, 24 h) is 0.055 µM. The maximal effect (Emax) under setting [1] worked out at 26.3%.
The corresponding values for `CCN(C)S(=O)(=O)Nc1ccc(F)c(Oc2ccc3ncn([C@H]4CCC5(CCN(C(=O)CN6CCC(c7ccc8c(C9CCC(=O)NC9=O)nn(C)c8c7)CC6)CC5)C4)c(=O)c3c2)c1Cl` (stereo partly drawn) [Example 166, 6-[2-chloro-3-[[ethyl(methyl)sulfamoyl]amino]-6-fluorophenoxy]-3-[(3S)-8-[2-[4-[3-(2,6-dioxopiperidin-3-yl)-1-methylindazol-6-yl]piperidin-1-yl]acetyl]-8-azaspiro[4.5]decan-3-yl]-4-oxoquinazoline] are 0.0345 µM and 23.5%.
As to `CCN(C)S(=O)(=O)Nc1ccc(F)c(Oc2ccc3ncn(-c4cnc(N5CCN(C(=O)CN6CCC(c7cc(OC)c(NC8CCC(=O)NC8=O)cc7F)CC6)CC5)nc4)c(=O)c3c2)c1C#N` (stereo not drawn) [Example 88, 6-[2-cyano-3-[[ethyl(methyl)sulfamoyl]amino]-6-fluorophenoxy]-3-[2-[4-[2-[4-[4-[(2,6-dioxopiperidin-3-yl)amino]-2-fluoro-5-methoxyphenyl]piperidin-1-yl]acetyl]piperazin-1-yl]pyrimidin-5-yl]-4-oxoquinazoline], the maximal response (Emax) stood at 9.01%. In addition, it took 0.0151 µM to reach half-maximal degradation (A375.10 cells, 24 h) (DC50).
`CCN(C)S(=O)(=O)Nc1ccc(F)c(Oc2ccc3ncn([C@H]4CCC5(CCN(C(=O)CN6CCC(c7ccc(C8CCC(=O)NC8=O)cc7F)C(F)(F)C6)CC5)C4)c(=O)c3c2)c1C#N` (stereo partly drawn) [Example 66, 6-[2-cyano-3-[[ethyl(methyl)sulfamoyl]amino]-6-fluorophenoxy]-3-[(3S)-8-[2-[4-[4-(2,6-dioxopiperidin-3-yl)-2-fluorophenyl]-3,3-difluoropiperidin-1-yl]acetyl]-8-azaspiro [4.5]decan-3-yl]-4-oxoquinazoline] had a DC50 (A375.10 cells, 24 h) of 0.0113 µM. Further, the Emax under setting [1] came out at 10.2%.
The matching figures for `CC(C)S(=O)(=O)Nc1ccc(F)c(Oc2ccc3ncn([C@H]4COC5(CCN(C(=O)CC6(O)CCN(c7cc8c(cc7F)c(N7CCC(=O)NC7=O)nn8C)CC6)CC5)C4)c(=O)c3c2)c1C#N` [Example 189, N-[2-cyano-3-[3-[(3R)-8-[2-[1-[3-(2,4-dioxo-1,3-diazinan-1-yl)-5-fluoro-1-methylindazol-6-yl]-4-hydroxypiperidin-4-yl]acetyl]-1-oxa-8-azaspiro[4.5]decan-3-yl]-4-oxoquinazolin-6-yl]oxy-4-fluorophenyl]propane-2-sulfonamide]: 0.0235 µM and 24.5%.
